Experiments:
[1] = Complexing constant Log K in methanol at 25° C.; type: binding
Experimental: K is the complexing constant of a CEM and a […] cation in methanol, at 25° C., which is measured according to the standard method of isothermal calorimetric titration.

[2] = Extraction of salts from a brine, four extraction steps, total salinity; conditions: 0.4M CEM1 + 1.2M ASM9 in 12ClPh; for Salinity progression at RT, Total: Org./Water 3, brine 180 g/Liter
Source text: (§1) The extracting composition is as follows: 0.4 Mol/L of CEM1 (cf example 1, of CAS #: 114155-16-7), completed with 1.2 Mol/L of ASM9 of formula: […]
(§2) The brine is a water having a high salinity, at 180 g/Liter (that is to say 5.6 Mol/L), composed of sodium, potassium, calcium, magnesium and chloride ions in the proportions of table II below. The saline water to be treated was contacted with a triple relative volume of this extracting composition in order to get close to the operating conditions.
(§3) It is shown in table II below the concentrations, in mMol/L of water, of each of the ions before and after each of the four extraction steps, carried out at room temperature (RT).

[3] = Selective extraction from a binary mixture NaCl/CaCl2; conditions: 0.1 mol/L CEM + 2.4 mol/L ASM9 in 1,2-dichlorobenzene; brine 0.05 mol/L NaCl and CaCl2 each; RT; molar %
Source text: A brine containing an equimolar mixture of salts, 0.05 mol/L of NaCl and CaCl2 each, which was made as described above, was contacted with two extracting compositions, one of which according to the invention.
Each extracting composition comprises 0.1 mol/L of CEM
[drawing 53] and 2.4 mol/L of ASM9 in 1,2-dichlorobenzene.
A brine containing a mixture of NaCl and CaCl2 is made as described above to obtain the following initial saline concentrations in a mixture: 0.2 Mol/L of NaCl and 0.03 Mol/L of CaCl2. The extracting resin, is composed of 0.1 Mol/L of CEM2, 3.52 Mol/L of ASM2 and a complement of liquid ASM1, which is also used as a fluidizing agent.

[4] = Liquid-liquid extraction of mono-salt saline solution; conditions: 0.1M CEM + 3.52M ASM2 in CH2Cl2; initial salt 0.1 mol/L; Org./Water = 1; molar %
Source text: The extracting composition is obtained by solubilizing an amount of CEM and ASM in the selected fluidizing agent, dichloromethane CH2Cl2, dichlorobenzene or dichlorotoluene or any other fluidizing agent able to well solubilize the mixture CEM/ASM in order to obtain the searched final concentrations after solubilizing CEMs and ASMs in a minimum of 3 milliliters of fluidizing agent. If the selected fluidizing agent is also an ASM compound, so the selected ASM volume is at least 3 milliliters. The given concentrations of ASM2 and ASM9 are related to the added fluidizing agent volume and the concentrations of CEM are related to the added fluidizing agent+ASM volume. The extracting organic composition is then lightly heated so as to promote the solubilization of the organic compounds by means of a heat gun (temperature around 50 to 60° C.) for a few seconds (10 to 30 seconds) until a clear solution is obtained. The composition is thus left for 24 hours at room temperature so as to make sure that the obtained formulation is stable.
These sealed formulations are then orbitally stirred at 500 revolutions/minute for two hours after adding an equivalent volume of water which was distilled twice so as to allow a water saturation of the whole formulation and a pH control at the inlet and at the outlet (pH close to 7, or at least maintained after contact with the saturation water).
3 mL of the prepared extracting organic composition are then taken from the lower phase of the decanted diphasic mixture and transferred to a vial containing 3 mL of the water containing the one or more considered chloride salts (NaCl or others), then the vial is sealed and orbitally stirred (at 500 revolutions per minute) for 2 hours at room temperature (RT), that is to say between 20 and 25° C.
A verification is made to make sure that droplets in the range of 1-2 mm are really present during these stirrings in order to be sure that an equilibrium in the distribution of the considered chloride salt (NaCl or other) is achieved between both liquid phases at the end of stirring. The aspect of the organic and aqueous phases is clear and colorless or slightly turbid.
Once the 2-hour stirring is carried out, the stirring is stopped and the whole is left for decantation for about 10 minutes, at least until both phases are completely separated, at the temperature of the assay. Then, the upper aqueous phase is taken then stirred and diluted in order to analyze its salinity by a ion chromatography (a Metrohm™ device including a cation analyzing column and an anion analyzing column suitable for the ions and for the concentration of the salts which are searched for). Likewise, the chloride salt (NaCl or other) initial aqueous solution is also analyzed by this ion chromatography to determine its cation and chloride molar relative concentration before the extraction. All the extractions and analyses were duplicated.
The considered extracting composition comprises 0.1 mol/L of CEM1 and 3.52 mol/L of ASM2 in dichloromethane CH2Cl2, which was obtained as described above. The initial concentration of the considered salt in water, whether it is LiCl, NaCl, KCl, MgCl2, CaCl2, SrCl2 or BaCl2, is 0.1 mol/L.
After carrying out these 7 specific extractions (duplicated) of salts, the amounts of extracted cations in relative molar percentage before and after extraction at room temperature and at water/extracting formulation iso-volume are indicated in table I: […]

[5] = Extraction of salts from a brine, four extraction steps; conditions: 0.4M CEM1 + 1.2M ASM9 in 12ClPh; for Salinity progression at RT, Ca / Salinity progression at RT, Cl / Salinity progression at RT, K / Salinity progression at RT, Mg / Salinity progression at RT, Na: Org./Water 3, brine 180 g/Liter
Source text: as §1, §2, §3

[6] = after Extract 4, expressed in g/Liter

## CCN(CC)C(=O)COc1c2cc(C(C)(C)C)cc1Cc1cc(C(C)(C)C)cc(c1OCC(=O)N(CC)CC)Cc1cc(C(C)(C)C)cc(c1OCC(=O)N(CC)CC)Cc1cc(C(C)(C)C)cc(c1OCC(=O)N(CC)CC)C2 [CEM1, 4-tert-butyl-Calix[4]arene tetrakis(N,N-diethylacetamide)]
[1]
  Log K(Ba^++, MeOH, 25° C.): 7.2
  Log K(Ca^++, MeOH, 25° C.): > 9.0
  Log K(Cs^+, MeOH, 25° C.): 2.5
  Log K(K^+, MeOH, 25° C.): 5.8
  Log K(Li^+, MeOH, 25° C.): 4.0
  Log K(Mg^++, MeOH, 25° C.): < 1.2
  Log K(Na^+, MeOH, 25° C.): 7.9
  Log K(Rb^+, MeOH, 25° C.): 3.8
  Log K(Sr^++, MeOH, 25° C.): > 9.0
[2]; after Extract 1
  Salinity progression at RT, Total: 4466 mmol/L
[2]; after Extract 2
  Salinity progression at RT, Total: 3322 mmol/L
[2]; after Extract 3
  Salinity progression at RT, Total: 1553 mmol/L
[2]; after Extract 4
  Salinity progression at RT, Total: 685 mmol/L
[2]; [6]
  Equivalent4, Total: 23.70 g/L
[3]
  % E Ca^++: 10.0%
  % E Na^+: 88.0%
[4]
  Extraction rate at room temperature (RT), BaCl2: 46.1%
  Extraction rate at room temperature (RT), CaCl2: 59.4%
  Extraction rate at room temperature (RT), KCl: 75.8%
  Extraction rate at room temperature (RT), LiCl: 73.7%
  Extraction rate at room temperature (RT), MgCl2: 5.4%
  Extraction rate at room temperature (RT), NaCl: 85.8%
  Extraction rate at room temperature (RT), SrCl2: 64.0%
[5]; after Extract 1
  Salinity progression at RT, Ca: 495 mmol/L
  Salinity progression at RT, Cl: 2703 mmol/L
  Salinity progression at RT, K: 22.5 mmol/L
  Salinity progression at RT, Mg: 83.4 mmol/L
  Salinity progression at RT, Na: 1162 mmol/L
[5]; after Extract 2
  Salinity progression at RT, Ca: 492 mmol/L
  Salinity progression at RT, Cl: 2292 mmol/L
  Salinity progression at RT, K: 23.4 mmol/L
  Salinity progression at RT, Mg: 86.4 mmol/L
  Salinity progression at RT, Na: 429 mmol/L
[5]; after Extract 3
  Salinity progression at RT, Ca: 360 mmol/L
  Salinity progression at RT, Cl: 1083 mmol/L
  Salinity progression at RT, K: 13.9 mmol/L
  Salinity progression at RT, Mg: 87.6 mmol/L
  Salinity progression at RT, Na: 8.54 mmol/L
[5]; after Extract 4
  Salinity progression at RT, Ca: 114 mmol/L
  Salinity progression at RT, Cl: 469 mmol/L
  Salinity progression at RT, K: 3.65 mmol/L
  Salinity progression at RT, Mg: 94.2 mmol/L
  Salinity progression at RT, Na: 3.70 mmol/L
[5]; [6]
  Equivalent4, Ca: 4.57 g/L
  Equivalent4, Cl: 16.62 g/L
  Equivalent4, K: 0.14 g/L
  Equivalent4, Mg: 2.29 g/L
  Equivalent4, Na: 0.09 g/L

Reference: patent US12623942B2, “Method for extracting salts and temperature- regenerated extracting composition” (ADIONICS, priority 2016, dated 2026)
